Source: patent publication US7704533B2, “Compositions and methods of inducing hair growth utilizing Continus coggygria” (J&J Consumer Companies, Inc., priority 2006, dated 2010)

Experiments:
[1] = test system: C3H mice; assay: Hair growth induction in C3H mice (mice entering anagen); format: in vivo
Source text: C3H female mice age 6-7 weeks of age were purchased from Taconic Farms (Germantown, N.Y.). Mice were housed in appropriately sized cages in an environmentally controlled room with a 12-hour light-12-hour dark photoperiod and supplied with food and water ad libitum. Animal care was based on the “Guide for the Care and Use of Laboratory Animals”, NIH Publication No. 85-23. Animals were acclimated for a week before study starts. Once all mice entered their prolonged telogen/resting phase (about 50-60 days long) of the hair cycle, they were clipped over the dorsal area about 1.5×5 cm (Wahl Clippers 8900 Series, Blade # 1086). Seven female mice per group were clipped while sedated with 2% induction and maintenance isoflurane and 0.5 L Oxygen. In addition to the 150 mg/ml Cotinus coggygria formulation, the treatment groups included a placebo, 5% Minoxidil as positive control and an untreated group to serve as control for natural hair growth initiation and to observe placebo effects. 200 μl of test materials were applied topically to the area daily, 5 days a week. Images were taken at the first signs of anagen/active growth phase and when needed based on visual observation. Skin samples were obtained for histological analysis at week 3 and a study log documenting day-to-day observations of mice entering anagen (grey skin, the first visual clue to a new hair growth) were recorded. Treatments continued for up to 6 weeks. […] C3H mice were treated as described in Example 3. In addition to the 150 mg/ml Cotinus coggygria formulation prepared as a concentrate via heat processing, a lyophilized Cotinus extract powder was prepared as described above, as well as lower (60 mg/ml, 90 mg/ml, 120 mg/ml) and higher concentrations (up to 210 mg/ml) of Cotinus coggygria extracts (Table III). The treatment groups included a placebo, 5% minoxidil as positive control and an untreated group to serve as control for natural hair growth initiation and to observe placebo effects. 200 ul of test materials were applied topically to the area daily, 5 days a week. Images were taken at the first signs of anagen/active growth phase and when needed based on visual observation. Skin samples were obtained for histological analysis and a study log documenting day-to-day observations of mice entering anagen (grey skin) were recorded. Treatments continued for up to 6 weeks. […] Moreover, a dose-dependent increase in dorsal hair coverage was observed visually and documented by images, and also confirmed by histological analysis. […] C3H female mice clipped over the dorsal area once they have entered their prolonged telogen phase (about 8 weeks long) were topically treated once daily for 6 weeks with 200 μl 150 mg/ml of Cotinus coggygria extract or with 5% Minoxidil or with the combination of both agents. […] C3H hair growth studies were performed as described in earlier examples, with the addition of formulation agents to the cotinus extract preparation.

[2] = test system: postmenopausal women with androgenetic alopecia; details: one-year trial; cited from earlier work

## Nc1cc(N2CCCCC2)nc(N)[n+]1[O-] [5% Minoxidil, Minoxidil]
[1]; Table II, day 9 of study, listed as Ave 5% Minoxidil
  % of mice entering anagen: 7%
[1]; Table II, day 9 of study, listed as Best 5% Minoxidil
  % of mice entering anagen: 20%
[1]; Table II, day 10 of study, listed as Ave 5% Minoxidil
  % of mice entering anagen: 18%
[1]; Table II, day 10 of study, listed as Best 5% Minoxidil
  % of mice entering anagen: 40%
[1]; Table II, day 13 of study, listed as Ave 5% Minoxidil
  % of mice entering anagen: 18%
[1]; Table II, day 13 of study, listed as Best 5% Minoxidil
  % of mice entering anagen: 40%
[1]; Table II, day 14 of study, listed as Ave 5% Minoxidil
  % of mice entering anagen: 31%
[1]; Table II, day 14 of study, listed as Best 5% Minoxidil
  % of mice entering anagen: 80%
[1]; Table II, day 16 of study, listed as Ave 5% Minoxidil
  % of mice entering anagen: 31%
[1]; Table II, day 16 of study, listed as Best 5% Minoxidil
  % of mice entering anagen: 80%
[1]; Table II, day 20 of study, listed as Ave 5% Minoxidil
  % of mice entering anagen: 32%
[1]; Table II, day 20 of study, listed as Best 5% Minoxidil
  % of mice entering anagen: 80%
[1]; Table II, day 22 of study, listed as Ave 5% Minoxidil
  % of mice entering anagen: 41%
[1]; Table II, day 22 of study, listed as Best 5% Minoxidil
  % of mice entering anagen: 80%
[1]; Table II, day 23 of study, listed as Ave 5% Minoxidil
  % of mice entering anagen: 38%
[1]; Table II, day 23 of study, listed as Best 5% Minoxidil
  % of mice entering anagen: 80%
[1]; Table II, day 24 of study, listed as Ave 5% Minoxidil
  % of mice entering anagen: 36%
[1]; Table II, day 24 of study, listed as Best 5% Minoxidil
  % of mice entering anagen: 75%
[1]; Table II, day 27 of study, listed as Ave 5% Minoxidil
  % of mice entering anagen: 36%
[1]; Table II, day 27 of study, listed as Best 5% Minoxidil
  % of mice entering anagen: 75%
[1]; Table II, day 29 of study, listed as Ave 5% Minoxidil
  % of mice entering anagen: 36%
[1]; Table II, day 29 of study, listed as Best 5% Minoxidil
  % of mice entering anagen: 100%
[1]; Table II, day 31 of study, listed as Ave 5% Minoxidil
  % of mice entering anagen: 45%
[1]; Table II, day 31 of study, listed as Best 5% Minoxidil
  % of mice entering anagen: 100%
[1]; Table II, day 35 of study, listed as Ave 5% Minoxidil
  % of mice entering anagen: 48%
[1]; Table II, day 35 of study, listed as Best 5% Minoxidil
  % of mice entering anagen: 100%
[1]; Table II, day 42 of study, listed as Ave 5% Minoxidil
  % of mice entering anagen: 63%
[1]; Table II, day 42 of study, listed as Best 5% Minoxidil
  % of mice entering anagen: 100%
[1]; Table II, day 43 of study, listed as Ave 5% Minoxidil
  % of mice entering anagen: 87%
[1]; Table II, day 43 of study, listed as Best 5% Minoxidil
  % of mice entering anagen: 100%
[1]; Table II, day 44 of study, listed as Ave 5% Minoxidil
  % of mice entering anagen: 93%
[1]; Table II, day 44 of study, listed as Best 5% Minoxidil
  % of mice entering anagen: 100%
[1]; Table III, day 8 of study
  % of mice entering anagen: 0%
[1]; Table III, day 9 of study
  % of mice entering anagen: 0%
[1]; Table III, day 10 of study
  % of mice entering anagen: 14%
[1]; Table III, day 11 of study
  % of mice entering anagen: 43%
[1]; Table III, day 14 of study
  % of mice entering anagen: 33%
[1]; Table III, day 15 of study
  % of mice entering anagen: 33%
[1]; Table III, day 16 of study
  % of mice entering anagen: 33%
[1]; Table III, day 17 of study
  % of mice entering anagen: 20%
[1]; Table III, day 18 of study
  % of mice entering anagen: 40%
[1]; Table III, day 21 of study
  % of mice entering anagen: 80%
[1]; Table III, day 22 of study
  % of mice entering anagen: 80%
[1]; Table III, day 23 of study
  % of mice entering anagen: 80%
[1]; Table III, day 24 of study
  % of mice entering anagen: 80%
[1]; Table III, day 25 of study
  % of mice entering anagen: 80%
[1]; Table III, day 28 of study
  % of mice entering anagen: 80%
[1]; Table III, day 29 of study
  % of mice entering anagen: 80%

## CC(C)(C)NC(=O)[C@H]1CC[C@H]2[C@@H]3CC[C@H]4NC(=O)C=C[C@]4(C)[C@H]3CC[C@]12C [Finasteride]
[2]
  scalp hair growth: did not improve scalp hair growth
